In the case of `COCCOc1cc(OCCOC)c2c(=O)[nH]c(-c3cc(C)nc(C)c3)nc2c1`, the melting point is reported as 150 to 151 °C. Work on `COC(=O)C1CCC(OC2=C3N=c4ccccc4=C3C(Cc3ccc(F)cc3)C=C2)O1` (stereo unspecified) yielded a melting point of 85 to 86 °C. For `CC(C)(C)C(=O)C(Br)C(Br)C(=O)C(C)(C)C` (stereo unspecified), the melting point was 107 to 109 °C. `CN1CC(CCCl)Oc2cc3ccccc3cc2C1=O` (stereo unspecified) gave a melting point of 101 to 102 °C. `C(=CCON(c1ccccc1)c1ccccc1)CON(c1ccccc1)c1ccccc1` showed a melting point of 74 to 76 °C. Molecule `O=C(O)c1c(Cl)ccc2cc(C(F)(F)F)cnc12` has a melting point of 250 °C. Work on `COc1cccc(CNS(=O)(=O)Cc2ccc3[nH]cc(CC#N)c3c2)c1` yielded a melting point of 125 to 126 °C. With `COC(=O)NN=Cc1nc(-c2cccc(C(F)(F)F)c2)[nH]c1C` the melting point was 251 to 252 °C. Work on `CC(=O)COc1cccc2ccc(OC(C)=O)nc12` yielded a melting point of 79 to 80 °C. With `C#Cc1cn(C2OC(CO)C(O)C2=C)c(=O)[nH]c1=O` (stereo unspecified) the melting point was 172 to 174 °C. `CCOc1ccc(OCCCN2CCN(c3ccc(Cl)nn3)CC2)cc1` gave a melting point of 125 to 127 °C. Molecule `CC1=CC(OC(=O)C=Cc2ccc(N)cc2)C(O)C(C)(C)CC1=O` (stereo unspecified) has a melting point of 72 to 74 °C. For `O=C(CC(=O)C1CCCCC1)C1CCCCC1`, the melting point was 50 to 52 °C. With `COc1cc(CN/C=C2\C(=O)NC(=O)c3ccc(Br)cc32)ccc1O` the melting point was 260 to 261 °C. With `COc1ccc(Nc2nc(Cl)nc(NC3CC3)n2)cc1F` the melting point was 186 °C. `CCCCCP(=O)(O)CCCN` showed a melting point of 232 to 236 °C. In the case of `O=C(O)CS(=O)(=O)Nc1c(F)cc(F)cc1F`, the melting point is reported as 126 to 127 °C. For `O=S(=O)(c1ccccc1)n1ccc2c(OCCCl)cccc21`, the melting point was 85 to 87 °C. `CC1(C)C2CC[C@@]1(N1CCCCC1)[C@H](O)C2` gave a melting point of 88.5 to 89.5 °C. For `CC1(C)CCCC(C)(C)N1c1nc(N2CCCC2)cc(N2CCNCC2)n1`, the melting point was 134 to 137 °C. `Cc1cccnc1C(=O)c1[nH]c2cc(Cl)ccc2c1N` showed a melting point of 171 to 172 °C. With `CC[C@H](COCCCc1ccccc1)n1cnc2c(N)nc3ccccc3c21` the melting point was 118 to 120 °C. `Cc1cc(-c2coc3ccc(-c4nnc(C)o4)cc23)ccn1` gave a melting point of 151 to 152 °C. Molecule `O=C1c2cc(OC(F)(F)F)ccc2S(=O)(=O)N1CCCCBr` has a melting point of 77 to 78 °C. `CNC(=O)C(=NOC)c1ccccc1COc1ncc(C(=O)O)cc1Cl` showed a melting point of 189 to 195 °C. With `N#Cc1cc([N+](=O)[O-])ccc1N1CCC(NCCO)CC1` the melting point was 115 °C. With `Cc1nnc2n1-c1ccc(C#CCC3C(=O)Nc4ccccc43)cc1C(c1ccccc1Cl)=NC2` (stereo unspecified) the melting point was 141 to 143 °C. For `O=C1OCCC1N[C@@H](Cc1ccccc1)C(=O)OCc1ccccc1` (stereo partly specified), the melting point was 46 to 47 °C. With `COc1ccc(C(O)CNCCN)cc1` (stereo unspecified) the melting point was 68 °C. Work on `O=C(NCCBr)C1=C(C(=O)Nc2ccc(Cl)cc2F)CCCC1` yielded a melting point of 165 to 166 °C. `Clc1ccc([C@H]2C[C@@H]3CC[C@@H]4[C@H]2C(=NOCc2ccccc2)CN34)cc1Cl` gave a melting point of 72 to 74 °C. Work on `COc1cc(N)cc2c1nc(C(F)F)n2-c1nc(N2CCOCC2)nc(N2CCN(S(C)(=O)=O)CC2)n1` yielded a melting point of 280 to 283 °C. `C=CCNc1c(C(C)=O)cnc2cn[nH]c12` showed a melting point of 211 to 213 °C. `CC(C)C(N)CN1CCC(Nc2nc3ccccc3n2Cc2ccc3ccccc3n2)CC1` (stereo unspecified) showed a melting point of 135 °C. For `CC(C)P1(=O)c2ccccc2CN1C` (stereo unspecified), the melting point was 72 to 74 °C. Work on `COC(=O)ONC(=N)Nc1ccc(C(=O)OC(C)(C)C)cc1` yielded a melting point of 122 to 126 °C. With `CCCc1nn(Cc2ccc(OCc3nc(-c4ccccc4)oc3C)cc2)cc1CCC(=O)O` the melting point was 153 to 154 °C. `COC(=O)c1ccc(OCC(O)c2cc3cc(C(C)(C)C)ccc3o2)cc1` (stereo unspecified) showed a melting point of 110 to 112 °C. With `CN1CCC(c2nn(CCCO)c3ccccc23)CC1` the melting point was 96 to 98 °C. `CCC(C)c1c(O)ccc2c1oc1ccc(C#N)cc12` (stereo unspecified) showed a melting point of 206 to 207 °C. `CCCc1c(OCCCSc2ccc(C(=O)OC)cn2)ccc(C(C)=O)c1O` gave a melting point of 66 to 68 °C. `c1csc(-c2ccnc(-c3cc(-c4cccs4)ccn3)c2)c1` showed a melting point of over 250 °C. Molecule `N#CC(NC(=O)C(F)(F)C(F)(F)F)c1ccc(Cl)cc1` (stereo unspecified) has a melting point of 118 °C. `CC(=O)NC(C(=O)NCc1ccncc1)c1ccco1` (stereo unspecified) gave a melting point of 168 to 170 °C. `CCOC(=O)c1ccncn1` showed a melting point of 36.8 °C. Molecule `O=C(Cn1c(-c2ccc(Cl)cc2)nc2cccnc21)NC1CC1` has a melting point of 231 to 232 °C. `O=c1nc(-c2ccc3c(c2)OCCO3)c2ccc3c(c2[nH]1)OCO3` gave a melting point of over 300 °C. `CCCn1nc2c(Cl)nc3ccccc3c2c1C` showed a melting point of 145 to 147 °C. With `Sc1nccn1Cc1ccsc1` the melting point was 130 to 131 °C. Molecule `CN1CCC(c2n[nH]c3cc(F)ccc23)CC1` has a melting point of 217 to 220 °C. In the case of `COc1cc(OC)c2c(=O)[nH]c(-c3ccc(N4CCC(O)CC4)cc3)nc2n1`, the melting point is reported as 284 to 286 °C.
